# Measurements taken from US8354402B2, “Polyarylcarboxamides useful as lipid lowering agents” (Janssen Pharmaceutica N.V., priority 2000, dated 2013).
# Structures can show the parent of a compound that is named as a salt.
# Tested on: ApoB secretion, HepG2 cells
# Experiment: Quantification of the secretion of ApoB (HepG2 cells, immunoprecipitation, scintillation counting)
# Format: cell-based
# Conditions: Homo sapiens, 24 hours of incubation
# Experimental: C.1. Quantification of the Secretion of ApoB
# HepG2 cells were cultured in 24-well plates in Minimal Essential Medium Rega 3 containing 10% fetal calf serum. Rega 3 has the following composition: CaCl2 (264 μg/ml), KCl (400 μg/ml), MgSO4.7H2O (200 μg/ml), NaCl (6800 μg/ml), NaHCO3 (850 μg/ml), NaH2PO4.H2O (158 μg/ml), D-glucose (1000 μg/ml), phenol red (10 μg/ml), L-alanine (8.9 μg/ml), L-arginine HCl (12 μg/ml), L-asparagine.H2O (15 μg/ml), L-aspartic acid (13.3 μg/ml), L-cystine (24 μg/ml), L-glutamic acid (14.7 μg/ml), glycine (7.5 μg/ml), L-histidine.HCl .H2O (42 μg/ml), L-isoleucine (52 μg/ml), L-leucine (52 μg/ml), L-lysine.HCl (72.5 μg/ml), L-methionine (15 μg/ml), L-phenylalanine (32 μg/ml), L-proline (11.5 μg/ml), L-serine (10.5 μg/ml), L-threonine (48 μg/ml), L-tryptophan (10 μg/ml), L-tyrosine (36 μg/ml), L-valine (46 μg/ml), D-Ca pantothenate (1 μg/ml), choline chloride (1 μg/ml), folic acid (1 μg/ml), 1-enositol (2 μg/ml), nicotinamide (1 μg/ml), pyridoxal HCl (1 μg/ml), riboflavin (0.1 μg/ml) and thiamine HCl (1 μg/ml).
# At 70% confluency, the medium was changed and the test compound or carrier (dimethylsulfoxide, 0.4% final concentration) was added. After 24 hours of incubation, the medium was transferred to Eppendorf tubes and cleared by centrifugation. A sheep antibody directed against either apo B was added to the supernatant and the mixture was kept at 8° C. for 24 hours. Then, rabbit anti-sheep antibody was added and the immune complex was allowed to precipitate for 24 hours at 8° C. The immunoprecipitate was pelleted by centrifugation for 25 minutes at 1320 g and washed twice with a buffer containing 40 mM 4-morpholinepropanesulfonic acid, 40 mM NaH2PO4, 100 mM NaF, 0.2 mM dithiothreitol, 5 mM ethylenediamine tetraacetic acid, 5 mM ethylenebis (oxyethylenenitrilo) tetraacetic acid, 1% Triton-X-100, 0.5% sodium deoxycholate, 0.1% sodium dodecylsulphate, 0.2 μM leupeptin and 0.2 μM phenylmethylsulphonylfluoride. Radioactivity in the pellet was quantified by liquid scintillation counting.
# Resulting IC50 values are enumerated in Table C.1 for a number of compounds No. 1 to No. 123.
row,SMILES,IC50 [nM]
1,"CCCNC(=O)C(c1ccccc1)C1CCN(c2ccc(NC(=O)c3ccccc3-c3ccc(C(F)(F)F)cc3)cc2)CC1 (stereo not drawn) [Co. No. 38, N-[4-[4-[2-oxo-1-phenyl-2-(propylamino)ethyl]-1-piperidinyl]phenyl]-4′-(trifluoromethyl)-[1,1′-biphenyl]-2-carboxamide trifluoroacetate (1:1)]",6.62

# Same assay, conditions: Homo sapiens, HepG2, 24 h, 24 hours of incubation
row,SMILES,IC50 [nM]
1,CCCNC(=O)C(c1ccccc1)C1CCN(c2ccc(NC(=O)c3ccccc3-c3ccc(OC)cc3)cc2)CC1 (stereo not drawn) [Co. No. 46],461
2,CC(C)CNC(=O)C(c1ccccc1)N1CCC(c2ccc(NC(=O)c3ccccc3-c3ccc(C(F)(F)F)cc3)cc2)CC1 (stereo not drawn) [Co. No. 74],≤ 30
3,O=C(Nc1ccc(N2CCC(C(C(=O)NCc3ccccc3)c3ccccc3)CC2)cc1)c1ccccc1-c1ccccc1Cl (stereo not drawn) [Co. No. 103],73.6
4,CCCNC(=O)C(c1ccccc1)C1CCN(c2ccc(NC(=O)c3ccccc3-c3ccccc3C(F)(F)F)cc2)CC1 (stereo not drawn) [Co. No. 130],360
5,CCNC(=O)C(c1ccccc1)N1CCN(c2ccc(N(C)C(=O)c3ccccc3-c3ccc(C(F)(F)F)cc3)cc2)CC1 (stereo not drawn) [Co. No. 182],7.62
6,O=C(Nc1ccc(N2CCC(C(C(=O)NCc3ccccc3)c3ccccc3)CC2)cc1)c1ccccc1Oc1ccccc1 (stereo not drawn) [Co. No. 9],221
7,CCCNC(=O)C(c1ccccc1)N1CCCN(c2ccc(NC(=O)c3ccccc3-c3ccc(C(F)(F)F)cc3)cc2)CC1 (stereo not drawn) [Co. No. 123],241
8,CCNC(=O)C(c1ccccc1)C1CCN(c2ccc(NC(=O)c3ccccc3-c3ccccc3)cc2)CC1 (stereo not drawn) [Co. No. 180],114
9,COC(=O)C(c1ccccc1)N1CCC(c2ccc(NC(=O)c3ccccc3-c3ccccc3)cc2)CC1 (stereo not drawn) [Co. No. 143],234
10,CCCNC(=O)C(c1ccccc1)C1CCN(c2ccc(NC(=O)c3ccccc3-c3ccccc3Cl)cc2)CC1 (stereo not drawn) [Co. No. 45],≥ 3000
11,COC(=O)C(c1ccccc1)N1CCCN(c2ccc(NC(=O)c3ccccc3-c3ccc(C(F)(F)F)cc3)cc2)CC1 (stereo not drawn) [Co. No. 119],175
12,CCCNC(=O)C(c1ccccc1)C1CCN(c2ccc(NC(=O)c3ccccc3-c3ccccc3)cc2)CC1 (stereo not drawn) [Co. No. 13],≤ 30
13,O=C(Nc1ccc(C2CCN(C(C(=O)NCc3ccccn3)c3ccccc3)CC2)cc1)c1ccccc1-c1ccc(C(F)(F)F)cc1 (stereo not drawn) [Co. No. 77],≤ 30
14,CCCNC(=O)C(c1ccccc1)N1CCC(c2ccc(NC(=O)c3ccccc3-c3ccc(C(F)(F)F)cc3)cc2)CC1 (stereo not drawn) [Co. No. 70],≤ 30
15,O=C(Nc1ccc(C2CCN(C(C(=O)NCc3cccnc3)c3ccccc3)CC2)cc1)c1ccccc1-c1ccc(C(F)(F)F)cc1 (stereo not drawn) [Co. No. 76],51.8
16,CC(C)(C)c1ccc(-c2ccccc2C(=O)Nc2ccc(N3CCC(C(C(=O)NCc4ccccc4)c4ccc(F)cc4)CC3)cc2)cc1 (stereo not drawn) [Co. No. 255],5.04
17,COC(=O)C(c1ccccc1)N1CCN(c2ccc(NC(=O)c3ccccc3-c3ccc(C(F)(F)F)cc3)cc2C)CC1 (stereo not drawn) [Co. No. 211],19.9
18,COC(=O)C(c1ccccc1)N1CCN(c2cc(F)c(NC(=O)c3ccccc3-c3ccc(C(F)(F)F)cc3)c(F)c2)CC1 (stereo not drawn) [Co. No. 204],428
19,CCNC(=O)C(c1ccccc1)C1CCN(c2ccc(NC(=O)c3ccccc3-c3ccc(C(F)(F)F)cc3)cc2)CC1 (stereo not drawn) [Co. No. 181],3.31
20,CC(C)NC(=O)C(c1ccccc1)C1CCN(c2ccc(NC(=O)c3ccccc3CSc3ccccc3)cc2)CC1 (stereo not drawn) [Co. No. 24],847
21,CCNC(=O)C(c1ccccc1)N1CCN(c2ccc(NC(=O)c3ccccc3-c3ccc(C(F)(F)F)cc3)c(C)c2)CC1 (stereo not drawn) [Co. No. 215],< 30
22,COC(=O)C(c1ccccc1)C1CCN(c2ccc(NC(=O)c3cccc(C)c3-c3ccc(C(C)(C)C)cc3)cc2)CC1 (stereo not drawn) [Co. No. 237],< 30
23,CCNC(=O)C(c1ccccc1)N1CCN(c2ccc(NC(=O)c3c(C)cccc3-c3ccc(C(F)(F)F)cc3)cc2)CC1 (stereo not drawn) [Co. No. 197],16.5
24,CCNC(=O)C(c1ccccc1)N1CCN(c2ccc(NC(=O)c3ccc(Cl)cc3-c3ccc(C(F)(F)F)cc3)cc2)CC1 (stereo not drawn) [Co. No. 201],< 30
25,O=C(Nc1ccc(N2CCN(C(C(=O)Nc3ccccc3)c3ccccc3)CC2)cc1)c1ccccc1-c1ccccc1 (stereo not drawn) [Co. No. 145],185
26,CCOC(=O)C(c1ccc(Cl)cc1)N1CCN(c2ccc(NC(=O)c3ccccc3-c3ccc(C(F)(F)F)cc3)cc2)CC1 (stereo not drawn) [Co. No. 262],558
27,O=C(Nc1ccc(N2CCC(C(C(=O)NCc3ccccc3)c3ccccc3)CC2)cc1)c1ccccc1-c1ccc(F)cc1 (stereo not drawn) [Co. No. 102],18.5

row,SMILES,IC50 [nM]
1,CCNC(=O)C(c1ccccc1)C1CCN(c2ccc(NC(=O)c3ccccc3-c3cccc(C(F)(F)F)c3)cc2)CC1 (stereo not drawn) [Co. No. 96],32.1
2,COc1ccccc1-c1ccccc1C(=O)Nc1ccc(N2CCC(C(C(=O)NCc3ccccc3)c3ccccc3)CC2)cc1 (stereo not drawn) [Co. No. 101],207
3,COC(=O)C(c1ccccc1)N1CCN(c2ccc(NC(=O)c3ccccc3-c3ccc(C(F)(F)F)cc3)c(C)c2)CC1 (stereo not drawn) [Co. No. 208],7.48
4,CCNC(=O)C(c1ccccc1)C1CCN(c2ccc(NC(=O)c3ccccc3-c3ccc4ccccc4c3)cc2)CC1 (stereo not drawn) [Co. No. 95],≤ 30
5,O=C(Nc1ccc(C2CCN(C(C(=O)OCCCc3ccccc3)c3ccccc3)CC2)cc1)c1ccccc1-c1ccc(C(F)(F)F)cc1 (stereo not drawn) [Co. No. 221],< 30
6,CCCCCNC(=O)C(CN1CCN(c2ccc(NC(=O)c3ccccc3-c3ccc(C(F)(F)F)cc3)cc2)CC1)c1ccccc1 (stereo not drawn) [Co. No. 65],240
7,COc1ccc(-c2ccccc2C(=O)Nc2ccc(N3CCC(C(C(=O)Nc4ccccc4)c4ccccc4)CC3)cc2)cc1 (stereo not drawn) [Co. No. 116],385
8,CCNC(=O)C(c1ccc(F)cc1)C1CCN(c2ccc(NC(=O)c3ccccc3-c3ccc(C(F)(F)F)cc3)cc2)CC1 (stereo not drawn) [Co. No. 256],15.1
9,CCCNC(=O)C(c1ccccc1)C1CCN(c2ccc(NC(=O)c3ccccc3-c3cccc(Cl)c3)cc2)CC1 (stereo not drawn) [Co. No. 82],97.5
10,O=C(Nc1ccc(N2CCC(C(C(=O)Nc3ccccc3)c3ccccc3)CC2)cc1)c1ccccc1-c1ccc(F)cc1 (stereo not drawn) [Co. No. 114],836
11,COC(=O)C(c1ccccc1)N1CCN(c2ccc(NC(=O)c3ccccc3-c3ccc(Cl)cc3)cc2)CC1 (stereo not drawn) [Co. No. 159],106
12,O=C(Nc1ccc(N2CCC(C(C(=O)NCc3ccccc3)c3ccccc3)CC2)cc1)c1ccccc1-c1ccc(Cl)cc1 (stereo not drawn) [Co. No. 100],11.6
13,CC(C)NC(=O)C(c1ccccc1)C1CCN(c2ccc(NC(=O)c3ccccc3OCc3ccccc3)cc2)CC1 (stereo not drawn) [Co. No. 26],275
14,CCNC(=O)C(c1ccccc1)N1CCN(c2ccc(NC(=O)c3cc(OC)ccc3-c3ccc(C(F)(F)F)cc3)cc2)CC1 (stereo not drawn) [Co. No. 195],89.7
15,COC(=O)C(c1ccccc1)N1CCN(c2ccc(N(C)C(=O)c3ccccc3-c3ccc(C(F)(F)F)cc3)cc2)CC1 (stereo not drawn) [Co. No. 183],21.6
16,CC(C)NC(=O)C(c1ccccc1)C1CCN(c2ccc(NC(=O)c3ccccc3COc3ccccc3)cc2)CC1 (stereo not drawn) [Co. No. 25],287
17,O=C(Nc1ccc(N2CCC(C(C(=O)Nc3ccccc3)c3ccccc3)CC2)cc1)c1ccccc1-c1cc(Cl)cc(Cl)c1 (stereo not drawn) [Co. No. 106],251
18,CCNC(=O)C(c1ccc(F)cc1)C1CCN(c2ccc(NC(=O)c3ccccc3-c3ccc(C(C)(C)C)cc3)cc2)CC1 (stereo not drawn) [Co. No. 257],13.9
19,O=C(Nc1ccc(N2CCN(C(C(=O)Oc3ccccc3)c3ccccc3)CC2)cc1)c1ccccc1-c1ccc(C(F)(F)F)cc1 (stereo not drawn) [Co. No. 158],21.3
20,CCNC(=O)C(c1ccccc1)C1CCN(c2ccc(NC(=O)c3ccccc3-c3cccc(C)c3)cc2)CC1 (stereo not drawn) [Co. No. 90],14.1
21,C=CCNC(=O)C(c1ccccc1)N1CCN(c2ccc(NC(=O)c3ccccc3-c3ccccc3)cc2)CC1 (stereo not drawn) [Co. No. 148],60.4
22,O=C(Nc1ccc(N2CCC(C(C(=O)Oc3ccccc3)c3ccccc3)CC2)cc1)c1ccccc1-c1ccccc1 (stereo not drawn) [Co. No. 178],34.3
23,O=C(Nc1ccc(N2CCC(C(C(=O)OCCc3ccccc3)c3ccccc3)CC2)cc1)c1ccccc1-c1ccc(C(F)(F)F)cc1 (stereo not drawn) [Co. No. 250],233
24,C=CCNC(=O)C(c1ccccc1)N1CC=C(c2ccc(NC(=O)c3ccccc3-c3ccc(C(F)(F)F)cc3)cc2)CC1 (stereo not drawn) [Co. No. 165],33
25,O=C(Nc1ccc(N2CCC(C(C(=O)NCc3ccccc3)c3ccccc3)CC2)cc1)c1ccccc1-c1cccc2ccccc12 (stereo not drawn) [Co. No. 136],148
26,COC(=O)C(c1ccccc1)N1CCN(c2ccc(NC(=O)c3ccccc3-c3ccc(C(F)(F)F)cc3)c(C(F)(F)F)c2)CC1 (stereo not drawn) [Co. No. 206],783
